Data: US11406640B2, “JAK1 pathway inhibitors for the treatment of chronic lung allograft dysfunction” (Incyte Corporation, priority 2019, dated 2022)

Tests used:
human JAK1 = human JAK1 (Homo sapiens, UniProt P23458); test: In vitro JAK kinase assay (Example A), JAK1; assay type: biochemical; settings: 1 mM ATP
From the text: In some embodiments, the JAK1 pathway inhibitor is a compound of Table 2, or a pharmaceutically acceptable salt thereof.

human JAK2 = human JAK2 (Homo sapiens (Human), UniProt O60674); test: In vitro JAK kinase assay (Example A), JAK2; assay type: biochemical; settings: JAK2/JAK1 IC50 ratio, 1 mM ATP
Experimental: The compounds in Table 2 were tested in this assay and shown to have the IC50 values in Table 2.

Chain of human JAK2 (O60674 828-1132): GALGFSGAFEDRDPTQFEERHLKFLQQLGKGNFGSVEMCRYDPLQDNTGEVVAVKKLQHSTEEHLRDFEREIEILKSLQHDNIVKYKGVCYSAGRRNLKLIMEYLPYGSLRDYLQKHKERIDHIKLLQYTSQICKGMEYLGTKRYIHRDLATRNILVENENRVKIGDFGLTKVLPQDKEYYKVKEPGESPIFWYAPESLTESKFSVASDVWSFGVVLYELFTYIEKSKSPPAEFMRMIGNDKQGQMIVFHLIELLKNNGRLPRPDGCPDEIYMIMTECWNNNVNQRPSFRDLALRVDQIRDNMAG

Row | IC50 (human JAK1) | JAK2/JAK1 (human JAK2) | SMILES
1 | < 10 nM | >10 | N#CC[C@]1(n2cc(-c3ncnc4[nH]ccc34)cn2)C[C@H](N2CCC(Oc3cc(CN4CCC[C@H]4CO)cc(C(F)(F)F)n3)CC2)C1 [Compound 12, {trans-3-(4-{[4-{[(2S)-2-(hydroxymethyl)pyrrolidin-1-yl]methyl}-6-(trifluoromethyl)pyridin-2-yl]oxy}piperidin-1-yl)-1-[4-(7H-pyrrolo[2,3-d]pyrimidin-4-yl)-1H-pyrazol-1-yl]cyclobutyl}acetonitrile]
2 | < 10 nM | >10 | N#CC[C@]1(n2cc(-c3ncnc4[nH]ccc34)cn2)C[C@H](N2CCC(Oc3cc(CN4CCC[C@@H]4CO)cc(C(F)(F)F)n3)CC2)C1 [Compound 13, {trans-3-(4-{[4-{[(2R)-2-(hydroxymethyl)pyrrolidin-1-yl]methyl}-6-(trifluoromethyl)pyridin-2-yl]oxy}piperidin-1-yl)-1-[4-(7H-pyrrolo[2,3-d]pyrimidin-4-yl)-1H-pyrazol-1-yl]cyclobutyl}acetonitrile]
3 | < 10 nM | >10 | C[C@H](NC(=O)c1cc(F)c(N2CC(CC#N)(n3cc(-c4ncnc5[nH]ccc45)cn3)C2)cc1F)C(F)(F)F [Compound 16, 4-{3-(cyanomethyl)-3-[4-(7H-pyrrolo[2,3-d]pyrimidin-4-yl)-1H-pyrazol-1-yl]azetidin-1-yl}-2,5-difluoro-N-[(1S)-2,2,2-trifluoro-1-methylethyl]benzamide]
4 | < 10 nM | >10 | N#CCC1(n2cc(-c3ncnc4[nH]ccc34)cn2)CN([C@H]2CC[C@@H](Oc3cc(CCO)nc(C(F)(F)F)n3)CC2)C1 [Compound 18, {1-(cis-4-{[6-(2-hydroxyethyl)-2-(trifluoromethyl)pyrimidin-4-yl]oxy}cyclohexyl)-3-[4-(7H-pyrrolo[2,3-d]pyrimidin-4-yl)-1H-pyrazol-1-yl]azetidin-3-yl}acetonitrile]
5 | < 10 nM | >10 | CCNCc1cc(O[C@H]2CC[C@@H](N3CC(CC#N)(n4cc(-c5ncnc6[nH]ccc56)cn4)C3)CC2)nc(C(F)(F)F)c1 [Compound 19, {1-(cis-4-{[4-[(ethylamino)methyl]-6-(trifluoromethyl)pyridin-2-yl]oxy}cyclohexyl)-3-[4-(7H-pyrrolo[2,3-d]pyrimidin-4-yl)-1H-pyrazol-1-yl]azetidin-3-yl}acetonitrile]
6 | < 10 nM | >10 | CC(C)(O)c1cc(O[C@H]2CC[C@@H](N3CC(CC#N)(n4cc(-c5ncnc6[nH]ccc56)cn4)C3)CC2)nc(C(F)(F)F)c1 [Compound 20, {1-(cis-4-{[4-(1-hydroxy-1-methylethyl)-6-(trifluoromethyl)pyridin-2-yl]oxy}cyclohexyl)-3-[4-(7H-pyrrolo[2,3-d]pyrimidin-4-yl)-1H-pyrazol-1-yl]azetidin-3-yl}acetonitrile]
7 | < 10 nM | >10 | N#CCC1(n2cc(-c3ncnc4[nH]ccc34)cn2)CN([C@H]2CC[C@@H](Oc3cc(CN4CC[C@@H](O)C4)cc(C(F)(F)F)n3)CC2)C1 [Compound 21, {1-(cis-4-{[4-{[(3R)-3-hydroxypyrrolidin-1-yl]methyl}-6-(trifluoromethyl)pyridin-2-yl]oxy}cyclohexyl)-3-[4-(7H-pyrrolo[2,3-d]pyrimidin-4-yl)-1H-pyrazol-1-yl]azetidin-3-yl}acetonitrile]
8 | < 10 nM | >10 | N#CCC1(n2cc(-c3ncnc4[nH]ccc34)cn2)CN([C@H]2CC[C@@H](Oc3cc(CN4CC[C@H](O)C4)cc(C(F)(F)F)n3)CC2)C1 [Compound 22, {1-(cis-4-{[4-{[(3S)-3-hydroxypyrrolidin-1-yl]methyl}-6-(trifluoromethyl)pyridin-2-yl]oxy}cyclohexyl)-3-[4-(7H-pyrrolo[2,3-d]pyrimidin-4-yl)-1H-pyrazol-1-yl]azetidin-3-yl}acetonitrile]

Second part, the compound before the results:

Row | SMILES | IC50 (human JAK1) | JAK2/JAK1 (human JAK2)
9 | N#CCC(C1CCN(c2cccc(Cl)n2)C1)n1cc(-c2ncnc3[nH]ccc23)cn1 (single isomer, unassigned) [Compound 6, 3-[1-(6-chloropyridin-2-yl)pyrrolidin-3-yl]-3-[4-(7H-pyrrolo[2,3-d]pyrimidin-4-yl)-1H-pyrazol-1-yl]propanenitrile] | < 10 nM | >10
10 | N#CCC1(n2cc(-c3ncnc4[nH]ccc34)cn2)CN(C2CCN(C(=O)Nc3ccc(F)cc3C(F)(F)F)CC2)C1 [Compound 2, 4-{3-(Cyanomethyl)-3-[4-(7H-pyrrolo[2,3-d]pyrimidin-4-yl)-1H-pyrazol-1-yl]azetidin-1-yl}-N-[4-fluoro-2-(trifluoromethyl)phenyl] piperidine-1-carboxamide] | < 10 nM | >10
11 | N#CCC1(n2cc(-c3ncnc4[nH]ccc34)cn2)CN(C2CCN(C(=O)c3ccnc(C(F)(F)F)n3)CC2)C1 [Compound 3, [3-[4-(7H-pyrrolo[2,3-d]pyrimidin-4-yl)-1H-pyrazol-1-yl]-1-(1-{[2-(trifluoromethyl)pyrimidin-4-yl]carbonyl}piperidin-4-yl)azetidin-3-yl]acetonitrile] | < 10 nM | >10
12 | C[C@@H](O)c1nc2cnc3ccsc3c2n1[C@H]1CC[C@H](CC#N)OC1 [Compound 5, ((2R,5S)-5-{2-[(1R)-1-hydroxyethyl]-1H-imidazo[4,5-d]thieno[3,2-b]pyridin-1-yl}tetrahydro-2H-pyran-2-yl)acetonitrile] | < 100 nM | >10
13 | N#CCC(C1CCN(c2nc3cccnc3o2)C1)n1cc(-c2ncnc3[nH]ccc23)cn1 (stereo not shown) [Compound 7, 3-(1-[1,3]oxazolo[5,4-b]pyridin-2-ylpyrrolidin-3-yl)-3-[4-(7H-pyrrolo[2,3-d]pyrimidin-4-yl)-1H-pyrazol-1-yl]propanenitrile] | < 10 nM | >10
14 | N#CCC(CN1CCN(C(=O)c2ccc(C#N)cc2F)CC1)n1cc(-c2ncnc3[nH]ccc23)cn1 (stereo not shown) [Compound 8, 4-[(4-{3-cyano-2-[4-(7H-pyrrolo[2,3-d]pyrimidin-4-yl)-1H-pyrazol-1-yl]propyl}piperazin-1-yl)carbonyl]-3-fluorobenzonitrile] | < 10 nM | >10
15 | N#CCC(CN1CCN(C(=O)c2ccc(C#N)cc2F)CC1)n1ccc(-c2ncnc3[nH]ccc23)c1 (stereo not shown) [Compound 9, 4-[(4-{3-cyano-2-[3-(7H-pyrrolo[2,3-d]pyrimidin-4-yl)-1H-pyrrol-1-yl]propyl}piperazin-1-yl)carbonyl]-3-fluorobenzonitrile] | < 10 nM | >10
16 | N#CC[C@]1(n2cc(-c3ncnc4[nH]ccc34)cn2)C[C@H](N2CCN(C(=O)c3ccnc(C(F)(F)F)n3)CC2)C1 [Compound 10, [trans-1-[4-(7H-pyrrolo[2,3-d]pyrimidin-4-yl)-1H-pyrazol-1-yl]-3-(4-{[2-(trifluoromethyl)pyrimidin-4-yl]carbonyl}piperazin-1-yl)cyclobutyl]acetonitrile] | < 10 nM | >10
17 | N#CC[C@]1(n2cc(-c3ncnc4[nH]ccc34)cn2)C[C@H](N2CCC(Oc3cc(CN4CC(O)C4)cc(C(F)(F)F)n3)CC2)C1 [Compound 11, {trans-3-(4-{[4-[(3-hydroxyazetidin-1-yl)methyl]-6-(trifluoromethyl)pyridin-2-yl]oxy}piperidin-1-yl)-1-[4-(7H-pyrrolo[2,3-d]pyrimidin-4-yl)-1H-pyrazol-1-yl]cyclobutyl}acetonitrile] | < 10 nM | >10
